# From article PMC7460285, “OctoPartenopin: Identification and Preliminary Characterization of a Novel Antimicrobial Peptide from the Suckers of Octopus vulgaris” (Marine Drugs, 2020)
# Ends that are not written are not given here.
# Legend:
# [1] = tested on: S. aureus ATCC 6538; test: Agar diffusion assay (inhibition zone diameter); type: cell-based, Staphylococcus aureus; design: key: R: Resistant; I: Intermediate; S: Sensitive; conditions: 5 μg ampicillin, 5 μg gentamicin, 37 °C, 24 h
# Protocol: (§1) Microorganisms used for this study were as follows: Staphylococcus aureus ATCC 6538, Pseudomonas aeruginosa ATCC 9027, and Candida albicans ATCC 90028. Microorganisms were routinely cultured in tryptic soy broth (TSB) supplemented with 0.1% glucose, at 37 °C, for 18 h prior to experiments, and corresponding cell concentration was adjusted to 10^6 CFU mL^−1 by optical density at 600 nm. Stock cultures were maintained in trypticase soy agar (TSA) and Sabouraud dextrose agar containing glycerol at −80 °C.
# (§2) For antimicrobial testing, the agar disc diffusion method was used and the antimicrobial susceptibility was detected by analyzing the inhibition zones, measured and compared according to the standards set by the CLSI [106], which classify the strains as sensitive (S), intermediate (I), or resistant (R). All tests were performed in duplicate, and the antimicrobial activity was expressed as the mean of inhibition diameters (mm, ±standard deviation, SD) produced by the extracts.
# (§3) Microorganisms were cultivated overnight and a suspension containing 10^6 CFU mL^−1 was spread on plates containing TSA or Sabouraud agar. Holes of approximately 5 × 3 mm were made in the agar and were filled with 30 μL of the extract stock solution (1 mg/mL). After incubation at 37 °C for 24 h, inhibition zones were measured in millimeters and compared to the controls. […]
# [2] = tested on: P. aeruginosa ATCC 9027; test: Agar diffusion assay (inhibition zone diameter); type: cell-based, Pseudomonas aeruginosa; design: key: R: Resistant; I: Intermediate; S: Sensitive; conditions: 5 μg ampicillin, 5 μg gentamicin, 37 °C, 24 h
# Protocol: as §1, §2, §3
# [3] = tested on: C. albicans ATCC 90028; test: Broth microdilution MIC determination; type: cell-based, Candida albicans; conditions: 80% inhibition of growth in liquid medium (TSB), 37 °C, 18 h, mean of three replicates ± SD
# Protocol: as §1, with “°C. The minimum inhibitory concentration (MIC) determination was conducted as described in our previous papers. Briefly, microbes were inoculated in TSB and incubated at 37 °C to the exponential phase. Then, the inoculum was diluted with fresh TSB to 10^6 CFU/mL, and 50 μL microbial dilutions were mixed with serial dilutions of fractions or peptides (50 μL) in 96-well microtiter plates.” for “°C.”
# [4] = tested on: S. aureus ATCC 6538; test: Broth microdilution MIC determination; type: cell-based, Staphylococcus aureus; conditions: 80% inhibition of growth in liquid medium (TSB), 37 °C, 18 h, mean of three replicates ± SD
# Protocol: as §1, with “°C. The minimum inhibitory concentration (MIC) determination was conducted as described in our previous papers. Briefly, microbes were inoculated in TSB and incubated at 37 °C to the exponential phase. Then, the inoculum was diluted with fresh TSB to 10^6 CFU/mL, and 50 μL microbial dilutions were mixed with serial dilutions of fractions or peptides (50 μL) in 96-well microtiter plates.” for “°C.”
# [5] = tested on: P. aeruginosa ATCC 9027; test: Broth microdilution MIC determination; type: cell-based, Pseudomonas aeruginosa; conditions: 80% inhibition of growth in liquid medium (TSB), 37 °C, 18 h, mean of three replicates ± SD
# Protocol: as §1, with “°C. The minimum inhibitory concentration (MIC) determination was conducted as described in our previous papers. Briefly, microbes were inoculated in TSB and incubated at 37 °C to the exponential phase. Then, the inoculum was diluted with fresh TSB to 10^6 CFU/mL, and 50 μL microbial dilutions were mixed with serial dilutions of fractions or peptides (50 μL) in 96-well microtiter plates.” for “°C.”
# [6] = tested on: C. albicans biofilm; type: cell-based, Candida albicans; conditions: 24 h
# Protocol: The microorganism’s ability to form biofilm was determined using the method previously described in our laboratory. Bacterial and fungal biofilm prevention and eradication assays were performed based on our published protocols. Synthetized peptides (P0–P4) were tested at sub-MIC concentrations ranging from 10 to 80 μM in triplicate in both assays. For the prevention of biofilm formation, diluted cultures of each strain were added to 96-well plates and incubated with peptides (at concentrations ranging from 10 to 80 μM) at 30 °C, for 24 h. For the eradication of mature biofilm, diluted cultures of C. albicans and two bacteria were added to 96-well plates and incubated at 30 °C. After 24 h, the planktonic cells and medium were aspirated from the wells and fresh medium was added to the well, followed by peptides at the same concentrations. Plates were incubated at 30 °C, for an additional 24 h. […] The OD of each well was measured at 550 nm with a microplate reader. The same formula described above was used to quantify the biofilm biomass forming when the incubation was done with peptides or when remaining after incubation with peptides. The percentage of biofilm inhibition and eradication was determined by the formula: biofilm reduction % = OD control − OD sample/OD control × 100%.
# [7] = tested on: mature biofilms of S. aureus, P. aeruginosa, and C. albicans; test: Mature biofilm eradication assay, crystal violet; type: cell-based; conditions: preformed 24 h biofilm, peptide 10 to 80 μM for 24 h, 30 °C; for Dispersion (clearance) of mature biofilm biomass: strain and concentration not stated for the values (Figure 4)
# Protocol: The microorganism’s ability to form biofilm was determined using the method previously described in our laboratory. Bacterial and fungal biofilm prevention and eradication assays were performed based on our published protocols. Synthetized peptides (P0–P4) were tested at sub-MIC concentrations ranging from 10 to 80 μM in triplicate in both assays. For the prevention of biofilm formation, diluted cultures of each strain were added to 96-well plates and incubated with peptides (at concentrations ranging from 10 to 80 μM) at 30 °C, for 24 h. For the eradication of mature biofilm, diluted cultures of C. albicans and two bacteria were added to 96-well plates and incubated at 30 °C. After 24 h, the planktonic cells and medium were aspirated from the wells and fresh medium was added to the well, followed by peptides at the same concentrations. Plates were incubated at 30 °C, for an additional 24 h. For both above mentioned assays, the planktonic cells and medium were aspirated at the end of the final incubation period, and wells were washed twice with PBS. The residual attached biofilms were fixed with 95% v/v ethanol per well and, after 20 min, plates were emptied and left to dry. Plates were stained for 15 min with 0.1% w/v crystal violet. Excess stain was then removed by rinsing the plate with PBS. The plates were allowed to dry, and the crystal violet-stained biofilm was solubilized with 200 μL of 30% v/v glacial acetic acid per well. The OD of each well was measured at 550 nm with a microplate reader. The same formula described above was used to quantify the biofilm biomass forming when the incubation was done with peptides or when remaining after incubation with peptides. The percentage of biofilm inhibition and eradication was determined by the formula: biofilm reduction % = OD control − OD sample/OD control × 100%.
# [8] = tested on: C. albicans ATCC 90028; test: Agar diffusion assay (inhibition zone diameter); type: cell-based, Candida albicans; design: key: R: Resistant; I: Intermediate; S: Sensitive; conditions: 1 μg amphotericin B, 37 °C, 24 h
# Protocol: as §1, §2, §3
Molecule,MIC80 synthetized peptides [3] [µM],MIC80 synthetized peptides [4] [µM],MIC80 synthetized peptides [5] [µM],Dispersion (clearance) of mature biofilm biomass [7],other results
"CNC(C)C1CCC(N)C(OC2C(N)CC(N)C(OC3OCC(C)(O)C(NC)C3O)C2O)O1 (stereo not shown) [G, Gentamicin]",–,–,–,–,Susceptibility class to positive control (CLSI interpretative chart) [1]: S; Susceptibility class to positive control (CLSI interpretative chart) [2]: S
GEGIIGLQAGTNKFASQIGMKIGAVRHIADIR-NH2 [P4],180 ± 5,80 ± 5,50 ± 2,–,–
QAGSNKGASQKGMS-NH2 [P2],100 ± 3,50 ± 5,50 ± 2,~90%,Inhibition rate of biofilm formation [6]: about 40%
"CC1(C)S[C@@H]2[C@H](NC(=O)[C@H](N)c3ccccc3)C(=O)N2[C@H]1C(=O)O [AMP, Ampicillin]",–,–,–,–,Susceptibility class to positive control (CLSI interpretative chart) [1]: S; Susceptibility class to positive control (CLSI interpretative chart) [2]: R
EGQGVISLQAGTNK-NH2 [P3],100 ± 4,80 ± 1,50 ± 3,~80%,–
AGTNK-NH2 [P0],200 ± 3,150 ± 2,200 ± 3,about 70%,–
QAGTNK-NH2 [P1],200 ± 5,150 ± 3,100 ± 5,–,"Antibiofilm (eradication) activity, in words [7]: weakest antibiofilm activity"
"C[C@@H]1[C@H](O)[C@@H](C)/C=C/C=C/C=C/C=C/C=C/C=C/C=C/[C@H](O[C@@H]2O[C@H](C)[C@@H](O)[C@H](N)[C@@H]2O)C[C@@H]2O[C@](O)(C[C@@H](O)C[C@@H](O)[C@H](O)CC[C@@H](O)C[C@@H](O)CC(=O)O[C@H]1C)C[C@H](O)[C@H]2C(=O)O [AMPH-B, amphotericin B]",–,–,–,–,Susceptibility class to positive control (CLSI interpretative chart) [8]: S
